Values of other authors, collected in patent US4486414A, “Dolastatins A and B cell growth inhibitory substances” (Arizona Board of Reagents, priority 1983, dated 1984).

Assays:
[1] = test system: murine P388 lymphocytic leukemia; details: intraperitoneal doses of 11 μg/kg/day; cited from earlier work
murine B16 melanoma = details: intraperitoneal doses of 11 μg/kg/day; cited from earlier work

In the case of dolastatin 1, the life extension [1] is given as 88% and the curative response (murine B16 melanoma) is given as 30%.
